Measurements reported in patent US11214593B2, “Anticancer peptides and uses thereof” (SUIGENERIS FARMACOSMETICS, S.L., priority 2017, dated 2022).
No end group written: not given here.

Experiments:
[1] = system: human pancreatic tumor cell line BXPC3; experiment: In vitro proliferation assay, cancer growth-inhibitory activity (Assay 1, crystal violet staining); assay type: cell-based; conditions: BXPC3 cells, peptide 20 μM final concentration, 72 h, FIG. 1-A
Description: (§1) The BXPC3 cell line from primary adenocarcinoma of human pancreas was provided by the Biomedical Research Institute (IRB) of Barcelona, and human umbilical cord primary endothelial cells (HUVEC) were obtained directly by the investigator and stored in liquid nitrogen in the laboratory. BXPC3 cells were maintained in RPMI-1640 culture medium (Gibco) supplemented with 10% fetal bovine serum and antibiotics. HUVEC cells were maintained in M199 culture medium (Gibco) supplemented with 20% fetal bovine serum, endothelial cell growth supplement (ECGS), Heparin (Hep) and antibiotics. Cultures were maintained in the cell incubator in a humid atmosphere at 37° C. containing 5% CO2.
(§2) The different peptides to be tested were easily dissolved in DMSO at a concentration of 50 mM and subsequently a 5 mM intermediate dilution was prepared in Dulbecco's PBS which was subjected to two short cycles of sonication, which retendered the peptides completely soluble. […]
(§3) Assays with the different peptides were performed following the protocol explained below. […] Once resuspended in culture medium, they were counted in Newbauer's chamber after a 1:1 dilution with trypan blue. […]
The optical density values per well were obtained by a Biotek Synergy™2 multi-detection microplate reader, using a 590 nm filter and by scanning reading, obtaining the mean values per well. […]

[2] = system: human umbilical cord primary endothelial cells (HUVEC); experiment: In vitro proliferation assay to test toxicity (Assay 2, crystal violet staining); assay type: cell-based; conditions: 10 μM up to 40 μM final concentration, 72 h, FIG. 2
Description: as §1, §2, §3
The optical density values per well were obtained by a Biotek Synergy™2 multi-detection microplate reader, using a 590 nm filter and by scanning reading, obtaining the mean values per well.

Row | Substance | inhibitory capacity on cancer cell growth (in words) [1] | effect on the growth of normal non-transformed cells (toxicity) [2]
1 | CH3-C(O)-CFEVSKY-NH2 (Ac-CFEVSKY-NH2) [Peptide P1B, variant of the P1C peptide wherein the isoleucine is substituted by a valine] | remarkable inhibitory capacity | –
2 | Ac-CFEISKY-NH2 [Peptide P1C, CH3-C(O)-CFEISKY-NH2] | – | did not affect the growth
3 | CFEISKY-NH2 [Peptide P1A, variant of the P1C peptide wherein the N-terminal end is free and the C-terminal end is amidated] | remarkable inhibitory capacity | –
